In patent US5486595A, “Tumor necrosis factor inhibitors” (Centecor, Inc., priority 1994, dated 1996):
Where a SMILES comes first, the peptide text is derived from it.

What follows are compounds tested against T1, human TNFα (Homo sapiens, UniProt P01375) (assay: p55 Receptor/IgG Fusion Protein Binding Assay (inhibition of TNFα capture by p55-Ig coated plate)). Conditions: peptide 1 mM; TNFα 25 ng/ml.
T1 construct: purchased Biosource, Camarillo, Calif
Method: This assay was designed to identify peptides which bind to human TNFα and thereby prevent the capture of the TNFα by a microtiter plate coated with p55-Ig fusion protein. A constant concentration of human TNFα is preincubated with the test peptide and then incubated on the p55-Ig coated microtiter wells. Bound TNFα is detected using a specific antisera and an alkaline phosphatase-conjugated probe.
A 96-well, U-bottom polyvinylchloride microtiter plate was coated with 50 μl/well of p55-Ig fusion protein at 5 μg/ml in 0.01M sodium phosphate, 0.15M sodium chloride (PBS) by incubation overnight at 4° C. or 2 hours at 37° C. The fusion protein, which consists of a p55 TNF receptor protein portion and an IgG portion, can be produced as disclosed in U.S. application Ser. No. 08/010,406 filed Jan. 29, 1993 which is incorporated herein by reference. The plate was washed three times with 0.05% Tween-20 in PBS, then blocked, by adding 150 μl/well of assay buffer (10 mM N-2-hydroxyethylpiperazine-N'-[…] (HEPES) pH 7.2, containing 0.1% porcine gelatin, 0.1% Tween-80, and 0.01% sodium azide) and continuing incubation for 1 hour at 37° C. or at 4° C. for 1-7 days.
Lyophilized peptides to be tested were weighed in tared 12×75 mm polystyrene tubes and reconstituted to a concentration of 1.2 mM with assay buffer. Each suspension was sonicated in a water bath for 1-5 minutes and vortexed 15-30 seconds to disperse large particles. Serial dilutions of each peptide suspension were prepared using assay buffer in a 96-well polystyrene microtiter plate. Additional wells received Fab fragment of the mouse/human monoclonal anti-human TNFα antibody cA2 (positive control) or assay buffer (negative control). […] The polystyrene dilution plate was then sealed and incubated 1 hour at room temperature on an orbital mixer set at moderate speed.
Following the sample preincubation, blocker was discarded from the p55-Ig coated plate and blotted dry. Aliquots (50 μl) of each peptide or control were transferred into duplicate wells on the p55-Ig coated plate which was then sealed and incubated i hour at 37° C. Duplicate wells containing only assay buffer were included as a plate blank. After incubation the p55-Ig plate was washed three times with 0.05% Tween-20 in PBS.
To detect TNFα captured by the p55-Ig plate, all wells were incubated in succession with polyclonal rabbit anti-human TNFα (Genzyme, Boston, Mass.; 1:500 in assay buffer, 50 μl/well), biotinylated goat anti-rabbit Ig (H&L) (Vector Laboratories, Burlingame, Calif.; 1 μg/ml in assay buffer, 50 μl/well) and streptavidin-alkaline phosphatase conjugate (Pierce, Rockford, Ill.; 1 μg/ml in assay buffer, 50 μl/well). All incubations were for 1 hour at 37° C. and after each incubation the plate was washed three times with 0.05% Tween-20 in PBS. Fifty microliters of alkaline phosphatase substrate solution (alkaline buffer (Sigma, St. Louis, Mo.) diluted 1:500 in deionized water plus one 5 mg tablet of p-nitrophenyl phosphate (Sigma, St. Louis, Mo.) per 5 ml of diluted buffer) was added to all wells and incubation continued for 20 minutes at room temperature. Color development was stopped by adding to all wells 50 μl of 3N sodium hydroxide. The optical density (OD) at 405 nm was measured on a microtiter plate reader (Molecular Devices Vmax plate reader), with the plate blank wells subtracted as background. The activity of each peptide was then expressed as the percent inhibition of TNFα capture by the p55-Ig plate, relative to the amount of TNFα captured in wells containing only assay buffer (negative control), as follows: % inhibition=100-((mean OD peptide/mean OD negative control)×100).
The inhibition of binding of TNFα to p55TNFr-IgG chimeric construct was performed as described above using several embodiments of the invention. The peptides were tested at a concentration of 1 mM.

T1 sequence (P01375 77-233 limits assumed): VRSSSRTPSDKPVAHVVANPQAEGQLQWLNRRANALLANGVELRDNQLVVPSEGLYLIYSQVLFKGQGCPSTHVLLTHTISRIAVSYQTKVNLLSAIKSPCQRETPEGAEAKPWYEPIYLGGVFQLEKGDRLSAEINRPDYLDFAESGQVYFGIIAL

| Compound | inhibition of binding of TNFα to p55TNFr-IgG chimeric construct [%] |
| --- | --- |
| SEQ ID NO:37: peptide of the invention that inhibits TNFα; sequence not printed (DSTYTQLWNWVPEAL) | 77 |
| SEQ ID NO:51: peptide of the invention that inhibits TNFα; sequence not printed (PGNASRDAVATSTSP) | 68 |
| SEQ ID NO:53: peptide of the invention that inhibits TNFα; sequence not printed (DAVATSTSPTRSMAP) | 63 |
| SEQ ID NO:34: peptide of the invention that inhibits TNFα; sequence not printed (SDTVADSAEDSTYTQ) | 65 |
| SEQ ID NO:48: peptide of the invention that inhibits TNFα; sequence not printed (TDIARPHQIANVVAI) | 27 |
| SEQ ID NO:41: peptide of the invention that inhibits TNFα; sequence not printed (EALSAGSRASSDQVE) | 68 |
| SEQ ID NO:39: peptide of the invention that inhibits TNFα; sequence not printed (LWNWVPEALSAGSRA) | 42 |

Same assay, conditions: peptide 1 mM; TNFα 25 ng/ml; read-out: inhibition of binding of TNFα to p55TNFr-IgG chimeric construct

| Compound | inhibition at 1000 µM [%] |
| --- | --- |
| CC(C)C[C@H](NC(=O)[C@H](Cc1c[nH]cn1)NC(=O)[C@H](CC(N)=O)NC(=O)[C@H](CCC(=O)O)NC(=O)[C@H](CO)NC(=O)[C@H](C)NC(=O)[C@@H](NC(=O)[C@H](Cc1ccccc1)NC(=O)[C@H](CO)NC(=O)CNC(=O)[C@H](CO)NC(=O)[C@H](CCC(=O)O)NC(=O)[C@H](C)NC(=O)[C@@H](N)CCC(=O)O)[C@@H](C)O)C(=O)N[C@@H](CCCNC(=N)N)C(N)=O [SEQ ID NO:6, Glutamyl-alanyl-glutamyl-seryl-glycyl-seryl-phenylalanyl-threonyl-alanyl-seryl-glutamyl-asparaginyl-histidyl-leucyl-arginine Amide] (H-EAESGSFTASENHLR-NH2) | 53 |
| CC(C)C[C@H](NC(=O)[C@H](CCCNC(=N)N)NC(=O)[C@H](C)NC(=O)[C@@H](NC(=O)[C@H](CO)NC(=O)CNC(=O)[C@@H]1CCCN1C(=O)[C@@H](N)CCC(=O)O)[C@@H](C)O)C(=O)N[C@@H](CCCNC(=N)N)C(=O)N[C@@H](CCC(=O)O)C(=O)N[C@@H](Cc1ccc(O)cc1)C(=O)N[C@@H](Cc1ccc(O)cc1)C(=O)N[C@@H](CC(=O)O)C(=O)N[C@@H](CCC(N)=O)C(=O)N[C@H](C(N)=O)[C@@H](C)O [SEQ ID NO:27] (H-EPGSTARLREYYDQT-NH2) | 78 |
| CC(C)[C@H](N)C(=O)N[C@@H](Cc1ccccc1)C(=O)N[C@@H](C)C(=O)N[C@H](C(=O)N[C@@H](CCCCN)C(=O)N[C@H](C(=O)N[C@@H](CO)C(=O)N[C@@H](CC(=O)O)C(=O)N[C@H](C(=O)N[C@H](C(=O)N[C@@H](C)C(=O)N[C@@H](CC(=O)O)C(=O)N[C@@H](CO)C(=O)N[C@@H](C)C(=O)N[C@@H](CCC(=O)O)C(N)=O)C(C)C)[C@@H](C)O)[C@@H](C)O)[C@@H](C)O [SEQ ID NO:32] (H-VFATKTSDTVADSAE-NH2) | 64 |
| CSCC[C@H](NC(=O)[C@@H]1CCCN1C(=O)[C@H](CC(C)C)NC(=O)[C@H](CC(C)C)NC(=O)[C@H](Cc1ccccc1)NC(=O)[C@H](CO)NC(=O)[C@@H](NC(=O)[C@H](CO)NC(=O)[C@@H]1CCCN1C(=O)[C@H](C)NC(=O)[C@@H](NC(=O)[C@H](CO)NC(=O)[C@@H]1CCCN1)[C@@H](C)O)[C@@H](C)O)C(=O)NCC(=O)N1CCC[C@H]1C(N)=O [SEQ ID NO:61] (H-PSTAPSTSFLLPMGP-NH2) | 72 |
| CC(C)[C@H](NC(=O)[C@@H](NC(=O)[C@H](CC(=O)O)NC(=O)[C@H](CO)NC(=O)[C@@H](NC(=O)[C@H](CCCCN)NC(=O)[C@@H](N)[C@@H](C)O)[C@@H](C)O)[C@@H](C)O)C(=O)N[C@@H](C)C(=O)N[C@@H](CC(=O)O)C(=O)N[C@@H](CO)C(=O)N[C@@H](C)C(=O)N[C@@H](CCC(=O)O)C(=O)N[C@@H](CC(=O)O)C(=O)N[C@@H](CO)C(=O)N[C@H](C(N)=O)[C@@H](C)O [SEQ ID NO:33] (H-TKTSDTVADSAEDST-NH2) | 67 |
| CC(C)C[C@H](N)C(=O)N[C@@H](Cc1ccc(O)cc1)C(=O)N[C@@H](CC(N)=O)C(=O)N[C@@H](CC(=O)O)C(=O)N[C@@H](C)C(=O)N1CCC[C@H]1C(=O)NCC(=O)N1CCC[C@H]1C(=O)NCC(=O)N[C@@H](CCC(N)=O)C(=O)N[C@@H](CC(=O)O)C(=O)N[C@H](C(=O)N[C@@H](CC(=O)O)C(=O)N[C@@H](C)C(=O)N[C@@H](CCCNC(=N)N)C(N)=O)[C@@H](C)O [SEQ ID NO:1, Leucyl-tyrosyl-asparaginyl-aspartyl-alanyl-prolyl-glycyl-prolyl-glycyl-glutaminyl-aspartyl-threonyl-aspartyl-alanyl-arginine Amide] (H-LYNDAPGPGQDTDAR-NH2) | 46 |
| C[C@H](NC(=O)[C@@H](NC(=O)[C@H](CO)NC(=O)[C@@H]1CCCN1C(=O)[C@H](CCC(=O)O)NC(=O)[C@@H]1CCCN1C(=O)[C@@H](NC(=O)[C@@H]1CCCN1C(=O)[C@H](CCC(N)=O)NC(=O)[C@@H](N)[C@@H](C)O)[C@@H](C)O)[C@@H](C)O)C(=O)N1CCC[C@H]1C(=O)N[C@@H](CO)C(=O)N[C@H](C(=O)N[C@@H](CO)C(=O)N[C@@H](Cc1ccccc1)C(N)=O)[C@@H](C)O [SEQ ID NO:59] (H-TQPTPEPSTAPSTSF-NH2) | 73 |
| CC(C)[C@H](NC(=O)[C@@H](NC(=O)[C@@H](N)CC(=O)O)[C@@H](C)O)C(=O)N[C@@H](C)C(=O)NCC(=O)N[C@@H](C)C(=O)N[C@@H](CCCNC(=N)N)C(=O)N[C@@H](CCCCN)C(=O)N[C@@H](CC(N)=O)C(=O)N[C@@H](CCC(N)=O)C(=O)N[C@@H](Cc1ccc(O)cc1)C(=O)N[C@@H](CCCNC(=N)N)C(=O)N[C@@H](Cc1c[nH]cn1)C(=O)N[C@@H](Cc1ccc(O)cc1)C(=O)N[C@@H](Cc1c[nH]c2ccccc12)C(N)=O [SEQ ID NO:9, Aspartyl-threonyl-valyl-alanyl-glycyl-alanyl-arginyl-lysyl-asparaginyl-glutaminyl-tyrosyl-arginyl-histidyl-tyrosyl-tryptophan Amide] (H-DTVAGARKNQYRHYW-NH2) | 30 |
| CC[C@H](C)[C@H](NC(=O)[C@H](CCC(N)=O)NC(=O)[C@@H]1CCCN1)C(=O)N[C@@H](CCC(=O)O)C(=O)N[C@@H](CC(N)=O)C(=O)N[C@H](C(=O)N[C@@H](CCCCN)C(=O)NCC(=O)N[C@H](C(=O)N[C@@H](CCC(=O)O)C(=O)N[C@@H](CC(N)=O)C(=O)N[C@@H](CO)C(=O)NCC(=O)N[C@H](C(=O)N[C@H](C(N)=O)[C@@H](C)O)[C@@H](C)O)[C@@H](C)O)C(C)C [SEQ ID NO:23, Prolyl-glutaminyl-isoleucyl-glutamyl-asparaginyl-valyl-lysyl-glycyl-threonyl-glutamyl-asparaginyl-seryl-glycyl-threonyl-threonine Amide] (H-PQIENVKGTENSGTT-NH2) | 52 |
| CC(C)C[C@H](NC(=O)[C@H](Cc1c[nH]cn1)NC(=O)[C@@H](NC(=O)[C@H](C)NC(=O)CN)C(C)C)C(=O)N1CCC[C@H]1C(=O)N[C@@H](CCC(N)=O)C(=O)N1CCC[C@H]1C(=O)N[C@H](C(=O)N[C@@H](CO)C(=O)N[C@H](C(=O)N[C@@H](CCCNC(=N)N)C(=O)N[C@@H](CO)C(=O)N[C@@H](CCC(N)=O)C(=O)N[C@@H](Cc1c[nH]cn1)C(N)=O)[C@@H](C)O)C(C)C [SEQ ID NO:55] (H-GAVHLPQPVSTRSQH-NH2) | 60 |
